# System: K86415-001-R-J1-PDC complex spheroids, viability
# Test: Anticancer human tumor K86415-001-R-J1-PDC patient-derived lung adenocarcinoma cell line growth inhibition [RAS]
# Conditions: curve of first compound; second compound 1 µM
# In short: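 Multi-cell-type spheroids: tumor cells plus HUVEC endothelial cells and mesenchymal stem cells. RAS-pathway inhibitors were combined with targeted agents, each dosed in half-log steps down from clinical Cmax, or from 10 microM when Cmax was unknown.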
# 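Note: spheroids exposed to agents for seven days before readout.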
row,Compound,IC50 [nM]
1,CCC(CC)c1cc(NC2CCC(N)C2)n2nccc2n1 (stereo unspecified) + C=CC(=O)N1CCN(c2nc(OCC3CCCN3C)nc3c(F)c(-c4nc(N)cc(C)c4C(F)(F)F)c(Cl)cc23)C(C)C1,< 31.6
2,CCN1CCN(Cc2ccc(Nc3ncc(F)c(-c4cc(F)c5nc(C)n(C(C)C)c5c4)n3)nc2)CC1 + C=CC(=O)N1CCN(c2nc(OCC3CCCN3C)nc3c(F)c(-c4nc(N)cc(C)c4C(F)(F)F)c(Cl)cc23)C(C)C1,< 3.16
3,Cc1nc(N2CCC3(CC2)COC(C)C3N)c(CO)nc1Sc1ccnc(N)c1Cl (stereo unspecified) + C=CC(=O)N1CCN(c2nc(OCC3CCCN3C)nc3c(F)c(-c4nc(N)cc(C)c4C(F)(F)F)c(Cl)cc23)C(C)C1,< 31.6
4,NC1c2ccccc2OC12CCN(c1cnc3c(N4CCCc5ncccc54)n[nH]c3n1)CC2 (stereo unspecified) + C=CC(=O)N1CCN(c2nc(OCC3CCCN3C)nc3c(F)c(-c4nc(N)cc(C)c4C(F)(F)F)c(Cl)cc23)C(C)C1,< 31.6

# Same assay, conditions: second compound 0.00316 µM; first compound 0.00316 µM; stronger effect = lower value
row,Compound,"viability, T/C [%]"
1,CCN1CCN(Cc2ccc(Nc3ncc(F)c(-c4cc(F)c5nc(C)n(C(C)C)c5c4)n3)nc2)CC1 + C=CC(=O)N1CCN(c2nc(OCC3CCCN3C)nc3c(F)c(-c4nc(N)cc(C)c4C(F)(F)F)c(Cl)cc23)C(C)C1,17.1

# Same assay, conditions: second compound 0.00316 µM; first compound 0.01 µM; stronger effect = lower value
row,Compound,"viability, T/C [%]"
1,CCN1CCN(Cc2ccc(Nc3ncc(F)c(-c4cc(F)c5nc(C)n(C(C)C)c5c4)n3)nc2)CC1 + C=CC(=O)N1CCN(c2nc(OCC3CCCN3C)nc3c(F)c(-c4nc(N)cc(C)c4C(F)(F)F)c(Cl)cc23)C(C)C1,15.9

# Same assay, conditions: second compound 0.00316 µM; first compound 0.0316 µM; stronger effect = lower value
row,Compound,"viability, T/C [%]"
1,CC1(O)CCCC1n1c(=O)c(C(F)F)cc2cnc(NC3CCN(S(C)(=O)=O)CC3)nc21 (stereo unspecified) + C=CC(=O)N1CCN(c2nc(OCC3CCCN3C)nc3c(F)c(-c4nc(N)cc(C)c4C(F)(F)F)c(Cl)cc23)C(C)C1,14.8
2,CCC(CC)c1cc(NC2CCC(N)C2)n2nccc2n1 (stereo unspecified) + C=CC(=O)N1CCN(c2nc(OCC3CCCN3C)nc3c(F)c(-c4nc(N)cc(C)c4C(F)(F)F)c(Cl)cc23)C(C)C1,21.7
3,CCN1CCN(Cc2ccc(Nc3ncc(F)c(-c4cc(F)c5nc(C)n(C(C)C)c5c4)n3)nc2)CC1 + C=CC(=O)N1CCN(c2nc(OCC3CCCN3C)nc3c(F)c(-c4nc(N)cc(C)c4C(F)(F)F)c(Cl)cc23)C(C)C1,13.3
4,Cc1nc(N2CCC3(CC2)COC(C)C3N)c(CO)nc1Sc1ccnc(N)c1Cl (stereo unspecified) + C=CC(=O)N1CCN(c2nc(OCC3CCCN3C)nc3c(F)c(-c4nc(N)cc(C)c4C(F)(F)F)c(Cl)cc23)C(C)C1,11.5
5,NC1c2ccccc2OC12CCN(c1cnc3c(N4CCCc5ncccc54)n[nH]c3n1)CC2 (stereo unspecified) + C=CC(=O)N1CCN(c2nc(OCC3CCCN3C)nc3c(F)c(-c4nc(N)cc(C)c4C(F)(F)F)c(Cl)cc23)C(C)C1,7.58

# Same assay, conditions: second compound 0.00316 µM; first compound 0.1 µM; stronger effect = lower value
row,Compound,"viability, T/C [%]"
1,CC1(O)CCCC1n1c(=O)c(C(F)F)cc2cnc(NC3CCN(S(C)(=O)=O)CC3)nc21 (stereo unspecified) + C=CC(=O)N1CCN(c2nc(OCC3CCCN3C)nc3c(F)c(-c4nc(N)cc(C)c4C(F)(F)F)c(Cl)cc23)C(C)C1,16.9
2,CCC(CC)c1cc(NC2CCC(N)C2)n2nccc2n1 (stereo unspecified) + C=CC(=O)N1CCN(c2nc(OCC3CCCN3C)nc3c(F)c(-c4nc(N)cc(C)c4C(F)(F)F)c(Cl)cc23)C(C)C1,20.9
3,CCN1CCN(Cc2ccc(Nc3ncc(F)c(-c4cc(F)c5nc(C)n(C(C)C)c5c4)n3)nc2)CC1 + C=CC(=O)N1CCN(c2nc(OCC3CCCN3C)nc3c(F)c(-c4nc(N)cc(C)c4C(F)(F)F)c(Cl)cc23)C(C)C1,15
4,Cc1nc(N2CCC3(CC2)COC(C)C3N)c(CO)nc1Sc1ccnc(N)c1Cl (stereo unspecified) + C=CC(=O)N1CCN(c2nc(OCC3CCCN3C)nc3c(F)c(-c4nc(N)cc(C)c4C(F)(F)F)c(Cl)cc23)C(C)C1,8.95
5,NC1c2ccccc2OC12CCN(c1cnc3c(N4CCCc5ncccc54)n[nH]c3n1)CC2 (stereo unspecified) + C=CC(=O)N1CCN(c2nc(OCC3CCCN3C)nc3c(F)c(-c4nc(N)cc(C)c4C(F)(F)F)c(Cl)cc23)C(C)C1,6.46

# Same assay, conditions: second compound 0.00316 µM; first compound 0.316 µM; stronger effect = lower value
row,Compound,"viability, T/C [%]"
1,CC1(O)CCCC1n1c(=O)c(C(F)F)cc2cnc(NC3CCN(S(C)(=O)=O)CC3)nc21 (stereo unspecified) + C=CC(=O)N1CCN(c2nc(OCC3CCCN3C)nc3c(F)c(-c4nc(N)cc(C)c4C(F)(F)F)c(Cl)cc23)C(C)C1,17.3
2,CCC(CC)c1cc(NC2CCC(N)C2)n2nccc2n1 (stereo unspecified) + C=CC(=O)N1CCN(c2nc(OCC3CCCN3C)nc3c(F)c(-c4nc(N)cc(C)c4C(F)(F)F)c(Cl)cc23)C(C)C1,26.4
3,CCN1CCN(Cc2ccc(Nc3ncc(F)c(-c4cc(F)c5nc(C)n(C(C)C)c5c4)n3)nc2)CC1 + C=CC(=O)N1CCN(c2nc(OCC3CCCN3C)nc3c(F)c(-c4nc(N)cc(C)c4C(F)(F)F)c(Cl)cc23)C(C)C1,18.7
4,Cc1nc(N2CCC3(CC2)COC(C)C3N)c(CO)nc1Sc1ccnc(N)c1Cl (stereo unspecified) + C=CC(=O)N1CCN(c2nc(OCC3CCCN3C)nc3c(F)c(-c4nc(N)cc(C)c4C(F)(F)F)c(Cl)cc23)C(C)C1,6.72
5,NC1c2ccccc2OC12CCN(c1cnc3c(N4CCCc5ncccc54)n[nH]c3n1)CC2 (stereo unspecified) + C=CC(=O)N1CCN(c2nc(OCC3CCCN3C)nc3c(F)c(-c4nc(N)cc(C)c4C(F)(F)F)c(Cl)cc23)C(C)C1,4.66

# Same assay, conditions: second compound 0.00316 µM; first compound 1 µM; stronger effect = lower value
row,Compound,"viability, T/C [%]"
1,CC1(O)CCCC1n1c(=O)c(C(F)F)cc2cnc(NC3CCN(S(C)(=O)=O)CC3)nc21 (stereo unspecified) + C=CC(=O)N1CCN(c2nc(OCC3CCCN3C)nc3c(F)c(-c4nc(N)cc(C)c4C(F)(F)F)c(Cl)cc23)C(C)C1,20.2
2,CCC(CC)c1cc(NC2CCC(N)C2)n2nccc2n1 (stereo unspecified) + C=CC(=O)N1CCN(c2nc(OCC3CCCN3C)nc3c(F)c(-c4nc(N)cc(C)c4C(F)(F)F)c(Cl)cc23)C(C)C1,45.6
3,CCN1CCN(Cc2ccc(Nc3ncc(F)c(-c4cc(F)c5nc(C)n(C(C)C)c5c4)n3)nc2)CC1 + C=CC(=O)N1CCN(c2nc(OCC3CCCN3C)nc3c(F)c(-c4nc(N)cc(C)c4C(F)(F)F)c(Cl)cc23)C(C)C1,33.9
4,Cc1nc(N2CCC3(CC2)COC(C)C3N)c(CO)nc1Sc1ccnc(N)c1Cl (stereo unspecified) + C=CC(=O)N1CCN(c2nc(OCC3CCCN3C)nc3c(F)c(-c4nc(N)cc(C)c4C(F)(F)F)c(Cl)cc23)C(C)C1,5.03
5,NC1c2ccccc2OC12CCN(c1cnc3c(N4CCCc5ncccc54)n[nH]c3n1)CC2 (stereo unspecified) + C=CC(=O)N1CCN(c2nc(OCC3CCCN3C)nc3c(F)c(-c4nc(N)cc(C)c4C(F)(F)F)c(Cl)cc23)C(C)C1,5.77
